Read-outs that look alike come from different tables or passages of the source.
What was measured:
[1] = molecular target: T1, hJAK2 (Homo sapiens, UniProt O60674); assay: Cerep LANCE kinase assay hJAK2 (S1 assay 33); type: biochemical; settings: read-out: JAK2
T1 construct: purchased Cerep (LANCE kinase assay platform, contract assay)

[2] = system: DLD-1; assay: cells; type: cell-based; settings: Homo sapiens
[3] = system: endothelial tube formation in co-cultures of ECFCs and ADSCs treated with VEGF; assay: cells; type: cell-based, human
[4] = system: HT-29; assay: cells; type: cell-based
[5] = molecular target: T2, hFLT3 (Homo sapiens, UniProt P36888); assay: Cerep LANCE kinase assay hFLT3 (S1 assay 35); type: biochemical; settings: read-out: FLT3
T2 construct: purchased Cerep (LANCE kinase assay platform, contract assay)
T2 sequence (P36888 27-993): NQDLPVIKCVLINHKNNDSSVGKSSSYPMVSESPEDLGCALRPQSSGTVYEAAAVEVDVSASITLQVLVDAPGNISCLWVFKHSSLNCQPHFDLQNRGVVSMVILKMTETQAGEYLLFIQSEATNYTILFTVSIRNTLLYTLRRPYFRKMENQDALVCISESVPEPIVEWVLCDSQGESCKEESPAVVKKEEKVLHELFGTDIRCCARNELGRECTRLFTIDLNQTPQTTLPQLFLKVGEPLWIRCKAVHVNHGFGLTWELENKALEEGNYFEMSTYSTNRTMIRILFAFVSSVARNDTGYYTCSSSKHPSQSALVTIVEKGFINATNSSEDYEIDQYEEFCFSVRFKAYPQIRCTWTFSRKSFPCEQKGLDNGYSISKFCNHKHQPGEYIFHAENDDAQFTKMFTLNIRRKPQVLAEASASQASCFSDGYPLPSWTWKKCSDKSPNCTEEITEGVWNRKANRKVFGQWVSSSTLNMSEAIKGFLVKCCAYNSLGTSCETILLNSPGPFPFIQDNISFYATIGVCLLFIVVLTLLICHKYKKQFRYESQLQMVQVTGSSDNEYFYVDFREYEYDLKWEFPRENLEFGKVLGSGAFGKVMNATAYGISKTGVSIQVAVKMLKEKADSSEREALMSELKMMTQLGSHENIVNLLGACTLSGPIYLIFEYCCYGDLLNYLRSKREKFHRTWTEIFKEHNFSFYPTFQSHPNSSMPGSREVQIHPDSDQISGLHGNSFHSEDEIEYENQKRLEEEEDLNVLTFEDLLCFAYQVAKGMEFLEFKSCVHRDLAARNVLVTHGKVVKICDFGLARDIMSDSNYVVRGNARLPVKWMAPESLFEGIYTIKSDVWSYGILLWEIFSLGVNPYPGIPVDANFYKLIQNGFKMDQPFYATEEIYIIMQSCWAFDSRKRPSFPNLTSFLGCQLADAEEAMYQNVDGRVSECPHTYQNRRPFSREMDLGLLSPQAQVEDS

[6] = system: INS-1E cells; assay: cells; type: cell-based, rat
[7] = system: SNU-C1; assay: cells; type: cell-based; settings: Homo sapiens
[8] = molecular target: T3, hp70S6K1 (RPS6KB1) (Homo sapiens, UniProt P23443); assay: Cerep LANCE kinase assay hp70S6K1 (S1 assay 31); type: biochemical; settings: read-out: p70S6K1
T3 construct: purchased Cerep (LANCE kinase assay platform, contract assay)
T3 sequence (P23443 whole entry): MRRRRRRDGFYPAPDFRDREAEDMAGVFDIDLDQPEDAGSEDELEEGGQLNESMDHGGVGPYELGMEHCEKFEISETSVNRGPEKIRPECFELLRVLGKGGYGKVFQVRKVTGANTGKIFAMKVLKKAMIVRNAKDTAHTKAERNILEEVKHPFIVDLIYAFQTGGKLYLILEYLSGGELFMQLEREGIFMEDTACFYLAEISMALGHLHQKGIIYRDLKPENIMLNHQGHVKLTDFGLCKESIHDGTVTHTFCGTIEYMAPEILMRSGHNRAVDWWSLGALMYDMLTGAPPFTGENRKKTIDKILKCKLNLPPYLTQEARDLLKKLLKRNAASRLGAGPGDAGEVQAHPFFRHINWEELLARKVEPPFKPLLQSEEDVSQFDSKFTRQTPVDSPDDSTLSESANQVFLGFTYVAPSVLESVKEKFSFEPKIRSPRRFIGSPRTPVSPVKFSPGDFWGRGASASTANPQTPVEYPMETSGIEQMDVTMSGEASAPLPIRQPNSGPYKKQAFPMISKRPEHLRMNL

[9] = system: HCT116 cells treated with a GSK3β inhibitor; assay: cells; type: cell-based; settings: Homo sapiens
[10] = system: RKO; assay: cells; type: cell-based
[11] = system: SW480; assay: cells; type: cell-based; settings: Homo sapiens
[12] = system: nuclear β-catenin in C2C12 cells; assay: cells; type: cell-based
[13] = molecular target: T4, hKDR (Homo sapiens, UniProt P35968); assay: Cerep LANCE kinase assay hKDR (S1 assay 32); type: biochemical; settings: read-out: KDR
T4 construct: purchased Cerep (LANCE kinase assay platform, contract assay)
T4 sequence (P35968 20-1356): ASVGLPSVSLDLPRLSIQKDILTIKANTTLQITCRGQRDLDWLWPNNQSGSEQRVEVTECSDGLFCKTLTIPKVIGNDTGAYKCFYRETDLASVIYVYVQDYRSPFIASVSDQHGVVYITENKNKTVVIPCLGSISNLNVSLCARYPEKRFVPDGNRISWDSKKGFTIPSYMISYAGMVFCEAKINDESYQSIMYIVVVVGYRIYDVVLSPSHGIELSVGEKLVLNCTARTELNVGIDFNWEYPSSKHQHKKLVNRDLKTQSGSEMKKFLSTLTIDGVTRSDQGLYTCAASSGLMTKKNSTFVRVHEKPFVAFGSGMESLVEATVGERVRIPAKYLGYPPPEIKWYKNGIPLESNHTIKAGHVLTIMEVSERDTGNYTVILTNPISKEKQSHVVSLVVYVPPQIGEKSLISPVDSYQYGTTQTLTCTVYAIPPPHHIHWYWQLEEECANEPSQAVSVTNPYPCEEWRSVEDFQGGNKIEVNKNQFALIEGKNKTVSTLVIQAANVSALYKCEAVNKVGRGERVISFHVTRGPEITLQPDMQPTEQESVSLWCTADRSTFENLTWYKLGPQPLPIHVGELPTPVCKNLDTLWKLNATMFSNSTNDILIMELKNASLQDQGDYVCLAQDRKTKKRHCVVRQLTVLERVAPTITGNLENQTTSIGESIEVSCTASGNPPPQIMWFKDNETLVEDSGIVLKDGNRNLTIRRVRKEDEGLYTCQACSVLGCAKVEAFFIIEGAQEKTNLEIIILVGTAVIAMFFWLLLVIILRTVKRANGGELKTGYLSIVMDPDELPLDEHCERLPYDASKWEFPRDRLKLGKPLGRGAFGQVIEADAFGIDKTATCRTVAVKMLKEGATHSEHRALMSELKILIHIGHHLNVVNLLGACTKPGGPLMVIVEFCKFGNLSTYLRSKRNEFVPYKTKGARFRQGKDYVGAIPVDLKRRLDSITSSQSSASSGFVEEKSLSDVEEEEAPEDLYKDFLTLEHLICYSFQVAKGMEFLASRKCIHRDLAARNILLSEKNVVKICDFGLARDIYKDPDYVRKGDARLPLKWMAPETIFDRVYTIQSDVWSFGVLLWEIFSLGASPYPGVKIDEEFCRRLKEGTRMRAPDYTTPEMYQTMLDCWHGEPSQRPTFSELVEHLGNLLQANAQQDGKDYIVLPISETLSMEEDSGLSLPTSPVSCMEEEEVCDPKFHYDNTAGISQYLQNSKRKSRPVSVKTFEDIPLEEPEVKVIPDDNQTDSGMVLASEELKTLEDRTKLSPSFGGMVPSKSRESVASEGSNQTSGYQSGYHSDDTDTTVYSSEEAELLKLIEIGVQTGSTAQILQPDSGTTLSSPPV

[14] = system: HeLa cells; assay: cells; type: cell-based; settings: for EC50: Homo sapiens, HeLa, read-out: CellCycle G2/M
[15] = system: Colo320; assay: cells; type: cell-based; settings: Homo sapiens
[16] = molecular target: T5, hGSK3b (Homo sapiens, UniProt P49841); assay: Cerep LANCE kinase assay hGSK3b (S1 assay 34); type: biochemical; settings: read-out: GSK3b
T5 construct: purchased Cerep (LANCE kinase assay platform, contract assay)
T5 sequence (P49841 whole entry): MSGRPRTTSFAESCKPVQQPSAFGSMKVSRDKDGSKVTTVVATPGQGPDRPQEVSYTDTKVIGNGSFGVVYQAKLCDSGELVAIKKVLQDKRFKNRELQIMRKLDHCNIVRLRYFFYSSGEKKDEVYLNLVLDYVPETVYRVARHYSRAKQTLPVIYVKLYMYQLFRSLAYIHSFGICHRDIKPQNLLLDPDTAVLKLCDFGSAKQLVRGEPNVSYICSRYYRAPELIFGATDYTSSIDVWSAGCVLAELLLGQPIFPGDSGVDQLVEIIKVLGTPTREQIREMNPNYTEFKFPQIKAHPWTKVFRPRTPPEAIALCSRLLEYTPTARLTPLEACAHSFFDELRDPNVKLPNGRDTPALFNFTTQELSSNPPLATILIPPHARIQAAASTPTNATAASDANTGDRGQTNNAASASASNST

[17] = system: NCI-H716 cells; assay: cells; type: cell-based, Human
[18] = system: HCT116; assay: cells; type: cell-based; settings: Homo sapiens
[19] = DLD-1, 72 h, read-out: DLD-1 viab. IC50
[20] = DLD-1, read-out: Basal_Viability ATP DLD-1
[21] = Homo sapiens, HT-29, read-out: Basal_Viability ATP HT-29
[22] = SNU-C1, read-out: Basal_Viability ATP SNU-C1
[23] = HCT-116, 72 h, read-out: HCT-116 (GSK3β) viab. IC50
[24] = HCT-116, read-out: GSK3b inh pretreated_Viability ATP HCT116
[25] = Homo sapiens, RKO, read-out: Basal_Viability ATP RKO
[26] = SW480, read-out: Basal_Viability ATP SW480
[27] = Mus musculus, C2C12, read-out: Wnt Pathway
[28] = COLO 320, read-out: Basal_Viability ATP Colo 320
[29] = HCT-116, read-out: Basal_Viability ATP HCT116
[30] = Homo sapiens, read-out: Anti-Angiogenesis
[31] = Rattus norvegicus, INS-1E, read-out: Insulin Secretion
[32] = Homo sapiens, NCI-H716, read-out: GLP 1 Secretion

T1 sequence (O60674 whole entry): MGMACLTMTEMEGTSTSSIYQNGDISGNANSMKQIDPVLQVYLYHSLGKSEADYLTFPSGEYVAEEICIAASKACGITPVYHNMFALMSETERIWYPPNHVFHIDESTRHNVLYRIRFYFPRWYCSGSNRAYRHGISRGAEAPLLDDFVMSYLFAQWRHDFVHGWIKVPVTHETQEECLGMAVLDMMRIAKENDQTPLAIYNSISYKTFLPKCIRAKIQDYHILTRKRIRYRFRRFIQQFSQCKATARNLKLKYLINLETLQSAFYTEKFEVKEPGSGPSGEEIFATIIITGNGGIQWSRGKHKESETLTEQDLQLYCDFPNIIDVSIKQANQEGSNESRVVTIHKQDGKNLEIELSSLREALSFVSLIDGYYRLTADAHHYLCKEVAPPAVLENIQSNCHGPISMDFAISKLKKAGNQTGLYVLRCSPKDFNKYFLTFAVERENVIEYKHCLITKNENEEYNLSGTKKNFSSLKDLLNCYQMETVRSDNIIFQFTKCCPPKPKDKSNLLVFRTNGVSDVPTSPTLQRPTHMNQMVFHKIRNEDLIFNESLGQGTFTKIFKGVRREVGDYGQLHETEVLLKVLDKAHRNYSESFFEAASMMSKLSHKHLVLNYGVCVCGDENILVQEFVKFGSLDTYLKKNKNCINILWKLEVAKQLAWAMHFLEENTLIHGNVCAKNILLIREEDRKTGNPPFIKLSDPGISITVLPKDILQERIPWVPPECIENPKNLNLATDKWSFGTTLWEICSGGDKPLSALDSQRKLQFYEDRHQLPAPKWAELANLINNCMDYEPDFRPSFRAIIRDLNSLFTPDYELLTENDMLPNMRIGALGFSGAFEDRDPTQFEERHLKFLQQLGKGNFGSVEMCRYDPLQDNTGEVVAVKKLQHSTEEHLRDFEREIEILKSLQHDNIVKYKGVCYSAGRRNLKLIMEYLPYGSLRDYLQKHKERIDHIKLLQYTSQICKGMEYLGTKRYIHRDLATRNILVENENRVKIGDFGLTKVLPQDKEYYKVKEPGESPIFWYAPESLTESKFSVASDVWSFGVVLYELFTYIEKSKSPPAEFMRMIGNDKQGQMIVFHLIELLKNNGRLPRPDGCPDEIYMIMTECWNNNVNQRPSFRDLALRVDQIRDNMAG

Cc1nc(N)nc(N)c1-c1ccc(Cl)c(Cl)c1 [metoprine, reference compound]
IC50 ([1]; kinase assay): > 20 µM
IC50 [2, 19]: 630 nM
IC50 [2, 20]: 634 nM
IC50 ([3]; Homo sapiens, read-out: Anti-Angio IC50): > 10000 nM
IC50 ([4]; Homo sapiens, HT-29, 72 h, read-out: HT-29 viab. IC50): 0.93 µM
IC50 [4, 21]: 0.932 µM
IC50 ([5]; kinase assay): > 20 µM
EC50 ([6]; Rattus norvegicus, INS-1E, read-out: Ins. sec. EC50): > 10 µM
IC50 ([7]; SNU-C1, 72 h, read-out: SNU-C1 viab. IC50): 2200 nM
IC50 [7, 22]: 2160 nM
IC50 ([8]; kinase assay): > 20 µM
IC50 [9, 23]: 59 nM
IC50 [9, 24]: 58.9 nM
IC50 ([10]; Homo sapiens, RKO, 72 h, read-out: RKO viab. IC50): 120 nM
IC50 [10, 25]: 117 nM
IC50 ([11]; SW480, 72 h, read-out: SW480 viab. IC50): 510 nM
IC50 [11, 26]: 512 nM
EC50 [12, 27]: 29.9 nM
EC50 ([12]; Mus musculus, C2C12, read-out: Wnt pot. EC50): 30 nM
IC50 ([13]; kinase assay): > 20 µM
EC50 [14]: > 10 µM
IC50 ([15]; COLO 320, 72 h, read-out: Colo320 viab. IC50): 2000 nM
IC50 [15, 28]: 2030 nM
IC50 ([16]; kinase assay): > 20 µM
EC50 ([17]; Homo sapiens, NCI-H716, read-out: GLP1 sec. EC50): > 10 µM
IC50 ([18]; HCT-116, 72 h, read-out: HCT-116 viab. IC50): 410 nM
IC50 [18, 29]: 413 nM

O=c1[nH]c(=O)n([C@H]2C[C@H](O)[C@@H](CO)O2)cc1F [Floxuridine]
IC50 ([1]; kinase assay): > 20 µM
IC50 [2, 20]: 1 nM
IC50 [3, 30]: 21.6 nM
IC50 [4, 21]: > 20 µM
IC50 ([5]; kinase assay): > 20 µM
EC50 [6, 31]: > 10 µM
IC50 [7, 22]: > 20000 nM
IC50 ([8]; kinase assay): > 20 µM
IC50 [9, 24]: 1 nM
IC50 [10, 25]: 1 nM
IC50 [11, 26]: > 20000 nM
EC50 [12, 27]: > 10000 nM
IC50 ([13]; kinase assay): > 20 µM
EC50 [14]: > 10 µM
IC50 [15, 28]: > 20000 nM
IC50 ([16]; kinase assay): > 20 µM
EC50 [17, 32]: > 10 µM
IC50 [18, 29]: 1 nM

Cc1ccc2nc(N)[nH]c(=O)c2c1Sc1ccncc1 [nolatrexed, reference compound]
IC50 [1]: > 20 µM
IC50 [2, 19]: > 20000 nM
IC50 ([3]; Homo sapiens, IC50 / EC50; endothelial tube area, ADSC/ECFC co-culture; read-out: Anti-Angiogenesis): 7370 nM
IC50 ([3]; Homo sapiens; read-out: Anti-Angio IC50): 7400 nM
IC50 ([4]; Homo sapiens, HT-29; Table 2; 72 h, Cell TiterGlo, non-adherent; 20 coded; read-out: HT-29 viab. IC50): 4.7 µM
IC50 ([4]; Homo sapiens, HT-29; read-out: Basal_Viability ATP HT-29): 4.75 µM
IC50 [5]: > 20 µM
EC50 ([6]; Rattus norvegicus, INS-1E; read-out: Ins. sec. EC50): > 10 µM
IC50 ([7]; SNU-C1, 72 h, Table 2, 72 h, Cell TiterGlo, non-adherent, 20 coded, read-out: SNU-C1 viab. IC50): > 20000 nM
IC50 [8]: 17.8 µM
IC50 [9, 23]: 830 nM
IC50 [9, 24]: 830 nM
IC50 ([10]; Homo sapiens, RKO; Table 2; 72 h, Cell TiterGlo, non-adherent; 20 coded; read-out: RKO viab. IC50): 340 nM
IC50 ([10]; Homo sapiens, RKO; read-out: Basal_Viability ATP RKO): 343 nM
IC50 ([11]; SW480, 72 h, Table 2, 72 h, Cell TiterGlo, non-adherent, 20 coded, read-out: SW480 viab. IC50): 2200 nM
IC50 ([11]; SW480, basal, read-out: Basal_Viability ATP SW480): 2240 nM
EC50 ([12]; Mus musculus, C2C12, IC50 / EC50; C2C12 beta-catenin translocation; read-out: Wnt Pathway): 244 nM
EC50 ([12]; Mus musculus, C2C12; read-out: Wnt pot. EC50): 240 nM
IC50 [13]: > 20 µM
G2/M IC50 / EC50 [14]: 20 (values shown as 20 indicate that the compound was tested in concentration-response and showed no response at the highest concentration tested (e.g. IC50 > 20 μM))
EC50 ([14]; IC50 / EC50): > 10 µM
IC50 ([15]; COLO 320, Table 2, 72 h, Cell TiterGlo, non-adherent, 20 coded, read-out: Colo320 viab. IC50): > 20000 nM
IC50 [16]: > 20 µM
EC50 ([17]; Homo sapiens, NCI-H716; read-out: GLP1 sec. EC50): > 10 µM
IC50 ([18]; HCT-116, 72 h, read-out: HCT-116 viab. IC50, Table 2, basal, 72 h, Cell TiterGlo, non-adherent, 20 coded): 3500 nM
IC50 ([18]; HCT-116, basal, read-out: Basal_Viability ATP HCT116): 3500 nM

Oc1c(I)cc(I)c2cccnc12 [Diiodohydroxyquinoline]
IC50 ([1]; kinase assay): > 20 µM
IC50 [2, 20]: 17.8 nM
IC50 [3, 30]: 2390 nM
IC50 [4, 21]: 0.705 µM
IC50 ([5]; kinase assay): > 20 µM
EC50 [6, 31]: > 10 µM
IC50 [7, 22]: 38.7 nM
IC50 ([8]; kinase assay): > 20 µM
IC50 [9, 24]: 66.7 nM
IC50 [10, 25]: 22.7 nM
IC50 [11, 26]: 3.6 nM
EC50 [12, 27]: > 10000 nM
IC50 ([13]; kinase assay): > 20 µM
EC50 [14]: > 10 µM
IC50 [15, 28]: 21.3 nM
IC50 ([16]; kinase assay): > 20 µM
EC50 [17, 32]: > 10 µM
IC50 [18, 29]: 41 nM

Cc1cc(O)c2c3c4c(cc(O)c13)C(C)(C)C(=O)c1c(O)cc(O)c(c1-4)C2=O [Heliomycin]
IC50 ([1]; kinase assay): > 20 µM
IC50 [2, 20]: 70.9 nM
IC50 [3, 30]: 100 nM
IC50 [4, 21]: 3.01 µM
IC50 ([5]; kinase assay): 1.97 µM
EC50 [6, 31]: > 10 µM
IC50 [7, 22]: 332 nM
IC50 ([8]; kinase assay): > 20 µM
IC50 [9, 24]: 57.3 nM
IC50 [10, 25]: 75.4 nM
IC50 [11, 26]: 58 nM
EC50 [12, 27]: 1070 nM
IC50 ([13]; kinase assay): > 20 µM
EC50 [14]: > 10 µM
IC50 [15, 28]: 82 nM
IC50 ([16]; kinase assay): 6.9 µM
EC50 [17, 32]: > 10 µM
IC50 [18, 29]: 77.5 nM

From article PMC4503722, “Novel Phenotypic Outcomes Identified for a Public Collection of Approved Drugs from a Publicly Accessible Panel of Assays” (PLoS ONE, 2015)
